Data as given in the supplement of paper PMC10307832.

How the values were obtained:
Experiment in all cases: relative viability (nuclei count vs DMSO), 5 days (fraction); higher = more cells survive
Dinaciclib = compound: CCc1cnn2c(NCc3ccc[n+]([O-])c3)cc(N3CCCC[C@H]3CCO)nc12 [Dinaciclib]
Summary of the method: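 Nuclei counted with MetaXpress define viability as the ratio of treated to vehicle wells, given as a median across plates. The lung cancer cell lines were in 1536-well plates, pinned with five √10-spaced library-drug doses and imaged at 4× after 5 days and Hoechst staining. Plates passed with control CV below 25% and at least one doubling.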

Dinaciclib + Crizotinib = compound: CCc1cnn2c(NCc3ccc[n+]([O-])c3)cc(N3CCCC[C@H]3CCO)nc12 [Dinaciclib] + C[C@@H](Oc1cc(-c2cnn(C3CCNCC3)c2)cnc1N)c1c(Cl)ccc(F)c1Cl [Crizotinib] (partner 1 µM)
Summary of the method: (§1)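 Nuclei were stained with Hoechst during a one-step fixation (final 0.05% Triton X-100, 1% formaldehyde, 1 ug/ml Hoechst) carried out 5 days after dosing, then counted on 4× images. The cells, lung cancer lines in 1536-well plates, had been dosed by pin tool the day after seeding with one drug alone or a fixed anchor-drug dose plus five library-drug doses (not always all listed) in √10 steps. Relative viability is the nuclei count in treated wells divided by that in vehicle wells, and each value is the median of duplicate plates.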

Dinaciclib + Alpelisib = compound: CCc1cnn2c(NCc3ccc[n+]([O-])c3)cc(N3CCCC[C@H]3CCO)nc12 [Dinaciclib] + Cc1nc(NC(=O)N2CCC[C@H]2C(N)=O)sc1-c1ccnc(C(C)(C)C(F)(F)F)c1 [Alpelisib] (partner 2 µM)
Summary of the method: as §1

Dinaciclib + Dasatinib = compound: CCc1cnn2c(NCc3ccc[n+]([O-])c3)cc(N3CCCC[C@H]3CCO)nc12 [Dinaciclib] + Cc1nc(Nc2ncc(C(=O)Nc3c(C)cccc3Cl)s2)cc(N2CCN(CCO)CC2)n1 [Dasatinib] (partner 0.075 µM)
Summary of the method: as §1

Dinaciclib + Olaparib = compound: CCc1cnn2c(NCc3ccc[n+]([O-])c3)cc(N3CCCC[C@H]3CCO)nc12 [Dinaciclib] + O=C(c1cc(Cc2n[nH]c(=O)c3ccccc23)ccc1F)N1CCN(C(=O)C2CC2)CC1 [Olaparib] (partner 8 µM)
Summary of the method: as §1

Cell Line	relative viability (Dinaciclib; 0.009487 µM)	relative viability (Dinaciclib; 0.03 µM)	relative viability (Dinaciclib; 0.09487 µM)	relative viability (Dinaciclib; 0.3 µM)	relative viability (Dinaciclib + Crizotinib; first compound 0.009487 µM)	relative viability (Dinaciclib + Crizotinib; first compound 0.03 µM)	relative viability (Dinaciclib + Crizotinib; first compound 0.09487 µM)	relative viability (Dinaciclib + Crizotinib; first compound 0.3 µM)	relative viability (Dinaciclib + Alpelisib; first compound 0.009487 µM)	relative viability (Dinaciclib + Alpelisib; first compound 0.03 µM)	relative viability (Dinaciclib + Alpelisib; first compound 0.09487 µM)	relative viability (Dinaciclib + Alpelisib; first compound 0.3 µM)	relative viability (Dinaciclib + Dasatinib; first compound 0.009487 µM)	relative viability (Dinaciclib + Dasatinib; first compound 0.03 µM)	relative viability (Dinaciclib + Dasatinib; first compound 0.09487 µM)	relative viability (Dinaciclib + Dasatinib; first compound 0.3 µM)	relative viability (Dinaciclib + Olaparib; first compound 0.009487 µM)	relative viability (Dinaciclib + Olaparib; first compound 0.03 µM)	relative viability (Dinaciclib + Olaparib; first compound 0.09487 µM)	relative viability (Dinaciclib + Olaparib; first compound 0.3 µM)
HCC-78	0.914	0.326	0.175	0.199	0.352	0.181	0.108	0.137	0.298	0.202	0.115	0.118	0.379	0.181	0.148	0.162	0.713	0.198	0.168	0.202
HCC-366	1.01	0.107	0.0385	0.0363	0.358	0.0242	0.0111	0.0131	0.366	0.0443	0.0165	0.0153	0.597	0.14	0.0199	0.033	0.174	0.032	0.0277	0.0241
HCC-827	1.1	0.85	0.188	0.168	0.946	0.333	0.16	0.15	0.879	0.601	0.126	0.123	0.285	0.221	0.135	0.184	0.631	0.123	0.116	0.117
HOP-62	0.957	0.474	0.0898	0.0943	0.841	0.236	0.0602	0.0489	0.828	0.27	0.0713	0.0692	0.662	0.33	0.0666	0.0723	0.295	0.0722	0.0964	0.0667
IA-LM	0.804	0.286	0.0334	0.0226	0.725	0.0572	0.0441	0.0336	0.669	0.0488	0.0282	0.0261					0.88	0.0461	0.0398	0.0287
LC-2-ad	0.917	0.18	0.145	0.129	0.441	0.119	0.109	0.116	0.811	0.0609	0.0619	0.0681	0.279	0.149	0.149	0.175	0.495	0.162	0.13	0.133
LCLC-97TM1	0.506	0.134	0.0776	0.0861	0.346	0.092	0.0991	0.103	0.197	0.129	0.121	0.107	0.718	0.434	0.14	0.108	0.322	0.0664	0.0584	0.0621
LCLC-103H	1.03	0.855	0.204	0.146	1.06	1.03	0.329	0.123	0.934	0.844	0.248	0.113	0.41	0.432	0.0877	0.0685	0.775	0.361	0.227	0.198
LK-2	0.888	0.193	0.177	0.151	0.232	0.202	0.21	0.18	0.849	0.274	0.232	0.199	0.267	0.141	0.115	0.144	0.615	0.0883	0.0805	0.0778
LOU-NH91	0.958	0.311	0.261	0.269	0.738	0.348	0.29	0.267	0.73	0.462	0.253	0.235	0.564	0.287	0.243	0.179	0.861	0.269	0.239	0.234
LU99A	0.838	0.199	0.139	0.133	0.315	0.131	0.125	0.122	0.37	0.133	0.116	0.0993	0.514	0.142	0.115	0.124	0.199	0.112	0.117	0.125
LXF-289	1.07	0.924	0.134	0.101	0.754	0.274	0.0748	0.0784	1.01	0.264	0.0715	0.0695	0.282	0.0717	0.0492	0.0472	1.01	0.103	0.0785	0.0985
NCI-H522	0.948	0.72	0.353	0.296									0.979	0.589	0.36	0.319	0.573	0.469	0.339	0.204
NCI-H1395	0.637	0.308	0.263	0.272					0.903	0.304	0.312	0.303	0.411	0.289	0.268	0.228	0.469	0.279	0.264	0.32
NCI-H1650	0.943	0.174	0.134	0.148	0.97	0.121	0.0986	0.113					0.197	0.171	0.179	0.133	0.861	0.431	0.127	0.0993
NCI-H1793	0.78	0.227	0.152	0.138					0.468	0.188	0.163	0.15	0.372	0.2	0.0986	0.13	0.64	0.139	0.119	0.153
SW 900	0.809	0.286	0.119	0.133									0.61	0.246	0.0591	0.0806	0.749	0.414	0.172	0.166
